Assays:
15-PGDH = 15-PGDH (Homo sapiens (Human), UniProt P15428); assay: Detection of 15-PGDH enzyme activity; type: biochemical; conditions: 15-PGDH enzyme inhibitory activity; substrates β-NAD and PGF2α
Text: The formula was shown below: Y=Bottom+(Top-Bottom)/(1+10∧((LogIC50−X)*HillSlope)), wherein X is a log value of a concentration of the compound, and Y is inhibition rate %.

A549 cells = assay: Assay of intracellular PGE2 up-regulatory activity; type: cell-based; conditions: Homo sapiens, IL-1β induced, 8 h, relative to positive control group; for activity at 0.01 µM: 10 nM compound, read-out: PGE2 upregulation rate at 10 nM compound concentration; for activity at 0.3 µM: 300 nM compound, read-out: PGE2 upregulation rate at 300 nM compound concentration
Experimental: • a) A549 cells were inoculated in the 24-well plate, and after cell adhesion, IL-1β was added thereto for 16 h of stimulation to induce COX2 expression and PGE2 production. • b) A solution of the compound to be tested was prepared with the culture medium and gradiently diluted to 3 concentrations of 10 nM, 300 nM and 10,000 nM or 7 concentrations of 0.64 nM, 3.2 nM, 16 nM, 80 nM, 400 nM, 2000 nM and 10,000 nM, and meanwhile the positive control group (only IL-1β was added to the cells for induction) and negative control group (only cells were added in the wells without any treatment) were set up. The cell supernatants were collected after 8 h of action, in which the positive control group was induced by IL-1β without treatment of the compounds, and the negative control group was neither stimulated by IL-1β, nor treated with the compounds. • c) The PGE2 content of the samples was determined by Prostaglandin E2 Kit, and the fluorescence signal was detected by a multifunctional microplate reader (Ex/Em=337/620, 337/665).
• a) A standard curve was plotted with the PGE2 standard in the Prostaglandin E2 Kit, and the PGE2 concentration was calculated by substituting with the fluorescence signal of the sample. • b) The PGE2 upregulation rate % was calculated by using the following formula: • PGE2 upregulation rate %=(PGE2 concentration of sample group/PGE2 concentration of positive control group)×100%.

Sequence of 15-PGDH (P15428 whole entry): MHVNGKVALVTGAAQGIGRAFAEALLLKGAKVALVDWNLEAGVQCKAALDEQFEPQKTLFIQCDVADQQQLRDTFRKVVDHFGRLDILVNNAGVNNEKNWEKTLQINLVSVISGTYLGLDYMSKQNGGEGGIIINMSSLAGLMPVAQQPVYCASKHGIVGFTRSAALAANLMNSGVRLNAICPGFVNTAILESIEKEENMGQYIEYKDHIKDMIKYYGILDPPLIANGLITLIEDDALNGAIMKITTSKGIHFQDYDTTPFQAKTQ

SMILES | IC50 (15-PGDH) [nM] | activity at 0.01 µM (A549 cells) [%] | activity at 0.3 µM (A549 cells) [%]
Nc1c(C(=O)N2CCC(F)CC2)sc2nc(-c3ccccc3)cnc12 [Example 3, (7-amino-3-phenylthieno[2,3-b]pyrazin-6-yl) (4-fluoropiperidin-1-yl) methanone] | 10 to 25 |  | 
Nc1ncc(-c2cnc3c(N)c(C(=O)N4CCCCC4)sc3n2)cn1 [Example 33] | < 0.5 | 393 | 754
Nc1ccc(-c2cnc3c(N)c(C(=O)N4CCCCC4)sc3n2)cn1 [Example 13] | 0.5 to 3 |  | 207
Cc1noc(C)c1-c1cnc2c(N)c(C(=O)N3CCCCC3)sc2n1 [Example 11] | 0.5 to 3 | 990 | 
Nc1c(C(=O)N2CCCCCC2)sc2nc(-c3ccccc3)cnc12 [Example 4] | 10 to 25 |  | 
Cc1cc(-c2cnc3c(N)c(C(=O)N4CCCCC4)sc3n2)ccn1 [Example 30] | 0.5 to 3 |  | 341
Nc1c(C(=O)N2CCSCC2)sc2nc(-c3ccccc3)cnc12 [Example 16] | 10 to 25 |  | 
Nc1c(C(=O)N2CCCCC2)sc2nc(-c3ccn[nH]3)cnc12 [Example 9] | 3 to 10 |  | 
Nc1c(C(=O)N2CCCCC2)sc2nc(-c3cccs3)cnc12 [Example 5] | 0.5 to 3 | 451 | 
Nc1c(C(=O)N2CCCCC2)sc2nc(-c3cncs3)cnc12 [Example 7] | 0.5 to 3 | 479 | 758
CN1CCN(c2ncc(-c3cnc4c(N)c(C(=O)N5CCCCC5)sc4n3)cn2)CC1 [Example 28] | 0.5 to 3 |  | 318
Cn1cc(-c2cnc3c(N)c(C(=O)N4CCCCC4)sc3n2)ccc1=O [Example 17] | 0.5 to 3 |  | 
Nc1c(C(=O)N2CCCCC2)sc2nc(-c3cncc4ccccc34)cnc12 [Example 26] | 0.5 to 3 | 499 | 
Nc1c(C(=O)N2CCCCC2)sc2nc(-c3ccc4ncoc4c3)cnc12 [Example 2, (7-amino-3-(benzo[d]oxazol-6-yl)thieno[2,3-b]pyrazin-6-yl) (piperidin-1-yl) methanone] | 0.5 to 3 | 200 | 348
Cc1ccc(-c2cnc3c(N)c(C(=O)N4CCCCC4)sc3n2)cn1 [Example 36] | 0.5 to 3 | 301 | 384
Nc1c(C(=O)N2CCCCC2)sc2nc(-c3cccnc3)cnc12 [Example 32] | 3 to 10 | 530 | 
Cn1ccc(-c2cnc3c(N)c(C(=O)N4CCCCC4)sc3n2)n1 [Example 8] | 3 to 10 |  | 
Nc1c(C(=O)N2CCCCC2)sc2nc(-c3ccc4ncccc4c3)cnc12 [Example 22] | 0.5 to 3 | 282 | 329

SMILES | IC50 (15-PGDH) [nM] | activity at 0.01 µM (A549 cells) [%] | activity at 0.3 µM (A549 cells) [%]
Nc1c(C(=O)N2CCCCC2)sc2nc(-c3ccc4nccn4c3)cnc12 [Example 15] | 0.5 to 3 |  | 168
COc1ccc(-c2cnc3c(N)c(C(=O)N4CCCCC4)sc3n2)cn1 [Example 20] | 0.5 to 3 |  | 
Nc1c(C(=O)N2CCCCC2)sc2nc(-c3ccccc3)cnc12 [Example 1, (7-amino-3-phenylthieno[2,3-b]pyrazin-6-yl) (piperidin-1-yl) methanone] | 3 to 10 |  | 
Nc1c(C(=O)N2CCCCC2)sc2nc(-c3cnc4[nH]ccc4c3)cnc12 [Example 29] | 0.5 to 3 |  | 
Nc1c(C(=O)N2CCCCC2)sc2nc(-c3ccncc3)cnc12 [Example 27] | 0.5 to 3 |  | 
Nc1c(C(=O)N2CCCCC2)sc2nc(-c3ccc4ncsc4c3)cnc12 [Example 23] | < 0.5 | 254 | 375
Nc1c(C(=O)N2CCCCC2)sc2nc(-c3ccc4ccccc4c3)cnc12 [Example 35] | 0.5 to 3 | 208 | 231
Nc1c(C(=O)N2CCCCC2)sc2nc(-c3ccc(N4CCOCC4)nc3)cnc12 [Example 19] | 3 to 10 |  | 
Nc1c(C(=O)N2CCCCC2)sc2nc(-c3cncnc3)cnc12 [Example 6] | 0.5 to 3 | 412 | 450
Nc1c(C(=O)N2CCCCC2)sc2nc(-c3cnc4ccccc4c3)cnc12 [Example 31] | 0.5 to 3 |  | 
CN(C)c1ncc(-c2cnc3c(N)c(C(=O)N4CCCCC4)sc3n2)cn1 [Example 25] | < 0.5 |  | 276
Nc1c(C(=O)N2CCCCC2)sc2nc(-c3ccc4c(c3)OCCO4)cnc12 [Example 10] | 0.5 to 3 |  | 206
Cn1ncc2cc(-c3cnc4c(N)c(C(=O)N5CCCCC5)sc4n3)ccc21 [Example 18] | 3 to 10 |  | 
Nc1c(C(=O)N2CCCCC2)sc2nc(-c3c(Cl)cccc3Cl)cnc12 [Example 34] | 0.5 to 3 |  | 
Nc1c(C(=O)N2CCCCC2)sc2nc(-c3ccnc(F)c3)cnc12 [Example 21] | < 0.5 |  | 211
Nc1c(C(=O)N2CCCCC2)sc2nc(-c3ccc4nccnc4c3)cnc12 [Example 12] | 0.5 to 3 |  | 170
Nc1c(C(=O)N2CCCCC2)sc2nc(-c3cnc(N4CCOCC4)nc3)cnc12 [Example 24] | < 0.5 |  | 310

The next lines start with results.

IC50 (15-PGDH) [nM] | SMILES | activity at 0.01 µM (A549 cells) [%] | activity at 0.3 µM (A549 cells) [%]
< 0.5 | N#Cc1ccc(-c2cnc3c(N)c(C(=O)N4CCCCC4)sc3n2)cn1 [Example 47] | 424 | 774
0.5 to 3 | Nc1c(C(=O)N2CCCCC2)sc2nc(-c3ccc4nc[nH]c4c3)cnc12 [Example 40] | 233 | 315
50 to 1000 | Nc1c(C(=O)N2CCC3(CC2)CC3)sc2nc(-c3ccccc3)cnc12 [Example 57] |  | 
0.5 to 3 | Nc1c(C(=O)N2CCCCC2)sc2nc(-c3ccc(F)nc3)cnc12 [Example 46] |  | 251
3 to 10 | Nc1c(C(=O)N2CCCCC2)sc2nc(-c3ccc4c(c3)OCO4)cnc12 [Example 43] |  | 
3 to 10 | Nc1c(C(=O)N2CCCCC2)sc2nc(-c3cccc4ccccc34)cnc12 [Example 61] |  | 
0.5 to 3 | Nc1c(C(=O)N2CCCCC2)sc2nc(-c3ccc4cccnc4c3)cnc12 [Example 39] |  | 
50 to 1000 | CC1CN(C(=O)c2sc3nc(-c4ccccc4)cnc3c2N)CC(C)O1 (stereo not drawn) [Example 55] |  | 
3 to 10 | Nc1c(C(=O)N2CCCCC2)sc2nc(-c3ccnc(C(F)(F)F)c3)cnc12 [Example 37] |  | 
0.5 to 3 | Cn1ccc2cc(-c3cnc4c(N)c(C(=O)N5CCCCC5)sc4n3)ccc2c1=O [Example 64] | 173 | 196
0.5 to 3 | CN1Cc2cc(-c3cnc4c(N)c(C(=O)N5CCCCC5)sc4n3)ccc2C1=O [Example 63] |  | 222
3 to 10 | N#Cc1ncc(-c2cnc3c(N)c(C(=O)N4CCCCC4)sc3n2)cn1 [Example 44] |  | 
> 5000 | Nc1c(C(=O)N2CC3(COC3)C2)sc2nc(-c3ccccc3)cnc12 [Example 59] |  | 
50 to 1000 | Nc1c(C(=O)N2CCOCC2)sc2nc(-c3ccccc3)cnc12 [Example 51] |  | 
0.5 to 3 | COc1cncc(-c2cnc3c(N)c(C(=O)N4CCCCC4)sc3n2)c1 [Example 45] | 177 | 347
50 to 1000 | Nc1c(C(=O)N2CCC(F)(F)C2)sc2nc(-c3ccccc3)cnc12 [Example 50] |  | 
50 to 1000 | Nc1c(C(=O)N2CCC(F)(F)CC2)sc2nc(-c3ccccc3)cnc12 [Example 49] |  | 
50 to 1000 | CN1CCN(C(=O)c2sc3nc(-c4ccccc4)cnc3c2N)CC1 [Example 52] |  | 
1000 to 5000 | Nc1c(C(=O)N2CCS(=O)(=O)CC2)sc2nc(-c3ccccc3)cnc12 [Example 53] |  | 
50 to 1000 | Nc1c(C(=O)N2CCc3ccccc3C2)sc2nc(-c3ccccc3)cnc12 [Example 54] |  | 
0.5 to 3 | Nc1cc(-c2cnc3c(N)c(C(=O)N4CCCCC4)sc3n2)ccn1 [Example 62] |  | 
10 to 25 | Cn1cc(-c2cnc3c(N)c(C(=O)N4CCCCC4)sc3n2)cn1 [Example 48] |  | 
> 5000 | Nc1c(C(=O)N2CC[S+]([O-])CC2)sc2nc(-c3ccccc3)cnc12 [Example 58] |  | 
< 0.5 | COc1ncc(-c2cnc3c(N)c(C(=O)N4CCCCC4)sc3n2)cn1 [Example 60] |  | 
50 to 1000 | CC1(C)CCN(C(=O)c2sc3nc(-c4ccccc4)cnc3c2N)CC1 [Example 56] |  | 
3 to 10 | Nc1c(C(=O)N2CCCCC2)sc2nc(-c3cnc4[nH]ncc4c3)cnc12 [Example 41] |  | 
0.5 to 3 | Cn1ccc(-c2cnc3c(N)c(C(=O)N4CCCCC4)sc3n2)cc1=O [Example 42] |  | 204

Reference: patent US20250154162A1, “COMPOUND FOR REGULATING AND CONTROLLING 15-PGDH ACTIVITY AND PREPARATION METHOD THEREFOR” (SCINNOHUB PHARMACEUTICAL CO., LTD., priority 2022, published 2025)
